Bounds are passed on as bounds.

The assay addresses GLP-1R (Homo sapiens, UniProt P43220). The assay is described as follows: GLP-1R Activation - cAMP Assay 1. The assay is classed as cell-based. To be noted: cAMP increase in CHO cells stably expressing GLP-1R; 30 minutes incubation; 10 point dose response. Here is the method:
GLP-1R Activation—cAMP Assay 1
GLP-1R activation by a compound of the present disclosure was quantified by measuring cAMP increase in CHO cells stably expressing GLP-1R (MultiSpan product #C1267-1a). The cells were harvested and plated in growth medium (DMEM/F-12 (Corning product #10-090-CV) supplemented with 10% FBS (HyClone product #SH30071-03), penicillin/streptomycin (Corning product #30-002CI) and 10 µg/ml puromycin (Gibco product #A11138-03)) at 1,000 cells/well in a 384-well plate (Greiner product #781080). The cells were then incubated overnight at 37° C., 5% CO2. The next day, the medium was removed and the cells were washed with DPBS (Corning product #21-031-CM) before adding the assay medium (HBSS, Corning product #21-023-CV) with 20 mM Hepes (Gibco product #15630-080) and 0.1% BSA (Rockland Immunochemicals product #BSA-1000)). Following the medium change, the cells were incubated for 1 hour at 37° C., 5% CO2. The tested GLP-1 compound was added to the cells in a 10 point dose response followed by a 30 minutes incubation at 37° C., 5% CO2. cAMP concentration increase was then detected using Cisbio's cAMP Gs Dynamic Kit (product #62AM4PEC) according to the manufacturer's protocol. The response was plotted against the log of the agonist concentration and fitted to a sigmoidal equation to determine the EC50.

Chain of GLP-1R (P43220 24-463): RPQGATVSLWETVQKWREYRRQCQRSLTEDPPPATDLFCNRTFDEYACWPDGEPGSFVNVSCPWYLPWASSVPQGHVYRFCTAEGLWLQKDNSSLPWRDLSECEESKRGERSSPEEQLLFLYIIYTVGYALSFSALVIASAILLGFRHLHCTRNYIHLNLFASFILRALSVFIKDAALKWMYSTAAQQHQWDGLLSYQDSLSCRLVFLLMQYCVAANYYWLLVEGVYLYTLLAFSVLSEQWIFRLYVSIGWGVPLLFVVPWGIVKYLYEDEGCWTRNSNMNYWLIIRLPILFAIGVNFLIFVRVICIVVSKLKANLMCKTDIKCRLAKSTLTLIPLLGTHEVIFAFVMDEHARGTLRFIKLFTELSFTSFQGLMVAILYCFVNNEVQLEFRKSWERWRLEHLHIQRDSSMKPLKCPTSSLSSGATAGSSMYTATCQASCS

In the case of `COCCn1c(CN2CCC(c3cccc(OCc4ccc(C#N)c5ccccc45)n3)CC2)nc2ccc(C(=O)O)cc21` [Example 25, 2-((4-(6-((4-cyanonaphthalen-1-yl)methoxy)pyridin-2-yl)piperidin-1-yl)methyl)-1-(2-methoxyethyl)-1H-benzo[d]imidazole-6-carboxylic acid], the EC50 (commonly the concentration needed to bring the measured effect to its halfway point) is 11.3 nM.

`COCCn1c(CN2CCC(c3cccc(OCc4c(F)cc(C(N)=O)cc4F)n3)CC2)nc2ccc(C(=O)O)cc21` [Example 37, 2-((4-(6-((4-carbamoyl-2,6-difluorobenzyl)oxy)pyridin-2-yl)piperidin-1-yl)methyl)-1-(2-methoxyethyl)-1H-benzo[d]imidazole-6-carboxylic acid] displayed a 50% effective concentration (EC50) of 2200 nM. Then `COCCn1c(CN2CCC(c3cccc(OCc4cccc5c4OC(F)(F)O5)n3)CC2)nc2ccc(C(=O)O)cc21` [Example 1, 2-((4-(6-((2,2-difluorobenzo[d][1,3]dioxol-4-yl)methoxy)pyridin-2-yl)piperidin-1-yl)methyl)-1-(2-methoxyethyl)-1H-benzo[d]imidazole-6-carboxylic acid], with 28.5 nM; and `COCCn1c(CN2CCC(c3cccc(OCc4ccc(COC)cc4)n3)CC2)nc2ccc(C(=O)O)cc21` [Example 30, 1-(2-methoxyethyl)-2-((4-(6-((4-(methoxymethyl)benzyl)oxy)pyridin-2-yl)piperidin-1-yl)methyl)-1H-benzo[d]imidazole-6-carboxylic acid], with 297 nM; and `COCCn1c(CN2CCC(c3cccc(OCc4cccc5c4cnn5C)n3)CC2)nc2ccc(C(=O)O)cc21` [Example 8, 1-(2-methoxyethyl)-2-((4-(6-((1-methyl-1H-indazol-4-yl)methoxy)pyridin-2-yl)piperidin-1-yl)methyl)-1H-benzo[d]imidazole-6-carboxylic acid], with 1310 nM. Then `COCCn1c(CN2CCC(c3cccc(OCc4ccc(Cl)c5ccccc45)n3)CC2)nc2ccc(C(=O)O)cc21` [Example 4, 2-((4-(6-((4-chloronaphthalen-1-yl)methoxy)pyridin-2-yl)piperidin-1-yl)methyl)-1-(2-methoxyethyl)-1H-benzo[d]imidazole-6-carboxylic acid], with 39.9 nM. For `COCCn1c(CN2CCC(c3cccc(OCc4ccc5nonc5c4)n3)CC2)nc2ccc(C(=O)O)cc21` [Example 27, 2-((4-(6-(benzo[c][1,2,5]oxadiazol-5-ylmethoxy)pyridin-2-yl)piperidin-1-yl)methyl)-1-(2-methoxyethyl)-1H-benzo[d]imidazole-6-carboxylic acid] the value was 66.8 nM; for `COCCn1c(CN2CCC(c3cccc(OCc4c(F)c(F)c(F)c(F)c4F)n3)CC2)nc2ccc(C(=O)O)cc21` [Example 14, 1-(2-methoxyethyl)-2-((4-(6-((perfluorophenyl)methoxy)pyridin-2-yl)piperidin-1-yl)methyl)-1H-benzo[d]imidazole-6-carboxylic acid], > 100 nM. Take `COCCn1c(CN2CCC(c3cccc(OCc4cc5cn[nH]c5cc4F)n3)CC2)nc2ccc(C(=O)O)cc21` [Example 39, 2-((4-(6-((6-fluoro-1H-indazol-5-yl)methoxy)pyridin-2-yl)piperidin-1-yl)methyl)-1-(2-methoxyethyl)-1H-benzo[d]imidazole-6-carboxylic acid]: the EC50 was > 10000 nM.

Turning to `COCCn1c(CN2CCC(c3cccc(OCc4ccc5c(c4)COC5=O)n3)CC2)nc2ccc(C(=O)O)cc21` [Example 43, 1-(2-Methoxyethyl)-2-((4-(6-((1-oxo-1,3-dihydroisobenzofuran-5-yl)methoxy)pyridin-2-yl)piperidin-1-yl)methyl)-1H-benzo[d]imidazole-6-carboxylic acid], the midpoint of the response, the EC50, lay at 345 nM. Then `COCCn1c(CN2CCC(c3cccc(OCc4ccc5ccncc5c4)n3)CC2)nc2ccc(C(=O)O)cc21` [Example 35, 2-((4-(6-(isoquinolin-7-ylmethoxy)pyridin-2-yl)piperidin-1-yl)methyl)-1-(2-methoxyethyl)-1H-benzo[d]imidazole-6-carboxylic acid], with 48.5 nM; and `COCCn1c(CN2CCC(c3cccc(OCc4ccc5ncccc5c4)n3)CC2)nc2ccc(C(=O)O)cc21` [Example 3, 1-(2-methoxyethyl)-2-((4-(6-(quinolin-6-ylmethoxy)pyridin-2-yl)piperidin-1-yl)methyl)-1H-benzo[d]imidazole-6-carboxylic acid], with 32.4 nM; and `COCCn1c(CN2CCC(c3cccc(OCc4cccc5ccccc45)n3)CC2)nc2ccc(C(=O)O)cc21` [Example 5, 1-(2-methoxyethyl)-2-((4-(6-(naphthalen-1-ylmethoxy)pyridin-2-yl)piperidin-1-yl)methyl)-1H-benzo[d]imidazole-6-carboxylic acid], with 50.6 nM. Then `COCCn1c(CN2CCC(c3cccc(OCc4ccc(C5CC5)cc4)n3)CC2)nc2ccc(C(=O)O)cc21` [Example 38, 2-((4-(6-((4-cyclopropylbenzyl)oxy)pyridin-2-yl)piperidin-1-yl)methyl)-1-(2-methoxyethyl)-1H-benzo[d]imidazole-6-carboxylic acid], with 58.3 nM; and `COCCn1c(CN2CCC(c3cccc(OCc4ccc(C#N)c5cccnc45)n3)CC2)nc2ccc(C(=O)O)cc21` [Example 42, 2-((4-(6-((5-cyanoquinolin-8-yl)methoxy)pyridin-2-yl)piperidin-1-yl)methyl)-1-(2-methoxyethyl)-1H-benzo[d]imidazole-6-carboxylic acid], with 6.6 nM; and `COCCn1c(CN2CCC(c3cccc(OCc4cccc5occc45)n3)CC2)nc2ccc(C(=O)O)cc21` [Example 32, 2-((4-(6-(benzofuran-4-ylmethoxy)pyridin-2-yl)piperidin-1-yl)methyl)-1-(2-methoxyethyl)-1H-benzo[d]imidazole-6-carboxylic acid], with 261 nM. `COCCn1c(CN2CCC(c3cccc(OCc4cccc5scnc45)n3)CC2)nc2ccc(C(=O)O)cc21` [Example 34, 2-((4-(6-(benzo[d]thiazol-4-ylmethoxy)pyridin-2-yl)piperidin-1-yl)methyl)-1-(2-methoxyethyl)-1H-benzo[d]imidazole-6-carboxylic acid] had a concentration for a half-maximal effect (EC50) of 19.8 nM. For `COCCn1c(CN2CCC(c3cccc(OCc4ccc(C(=O)N(C)C)cc4F)n3)CC2)nc2ccc(C(=O)O)cc21` [Example 11, 2-((4-(6-((4-(dimethylcarbamoyl)-2-fluorobenzyl)oxy)pyridin-2-yl)piperidin-1-yl)methyl)-1-(2-methoxyethyl)-1H-benzo[d]imidazole-6-carboxylic acid] the value was 9910 nM; for `COCCn1c(CN2CCC(c3cccc(OCc4ccc5c(c4)OC(F)(F)O5)n3)CC2)nc2ccc(C(=O)O)cc21` [Example 6, 2-((4-(6-((2,2-difluorobenzo[d][1,3]dioxol-5-yl)methoxy)pyridin-2-yl)piperidin-1-yl)methyl)-1-(2-methoxyethyl)-1H-benzo[d]imidazole-6-carboxylic acid], 10.5 nM; for `COCCn1c(CN2CCC(c3cccc(OCc4ccc(C(O)(C(F)(F)F)C(F)(F)F)cc4)n3)CC2)nc2ccc(C(=O)O)cc21` [Example 2, 2-((4-(6-((4-(1,1,1,3,3,3-hexafluoro-2-hydroxypropan-2-yl)benzyl)oxy)pyridin-2-yl)piperidin-1-yl)methyl)-1-(2-methoxyethyl)-1H-benzo[d]imidazole-6-carboxylic acid], 1260 nM. In turn, `COCCn1c(CN2CCC(c3cccc(OCc4ccc5c(c4)C(=O)OC5)n3)CC2)nc2ccc(C(=O)O)cc21` [Example 44, 1-(2-methoxyethyl)-2-((4-(6-((3-oxo-1,3-dihydroisobenzofuran-5-yl)methoxy)pyridin-2-yl)piperidin-1-yl)methyl)-1H-benzo[d]imidazole-6-carboxylic acid] yielded an EC50 of 109 nM. Then `COCCn1c(CN2CCC(c3cccc(OCc4ccc5c(c4)OCO5)n3)CC2)nc2ccc(C(=O)O)cc21` [Example 7, 2-((4-(6-(benzo[d][1,3]dioxol-5-ylmethoxy)pyridin-2-yl)piperidin-1-yl)methyl)-1-(2-methoxyethyl)-1H-benzo[d]imidazole-6-carboxylic acid], with 4920 nM; and `COCCn1c(CN2CCC(c3cccc(OCc4ccc(S(C)(=O)=O)cc4)n3)CC2)nc2ccc(C(=O)O)cc21` [Example 9, 1-(2-methoxyethyl)-2-((4-(6-((4-(methylsulfonyl)benzyl)oxy)pyridin-2-yl)piperidin-1-yl)methyl)-1H-benzo[d]imidazole-6-carboxylic acid], with 1190 nM. Then `COCCn1c(CN2CCC(c3cccc(OCc4ccc5cccnc5c4)n3)CC2)nc2ccc(C(=O)O)cc21` [Example 36, 1-(2-methoxyethyl)-2-((4-(6-(quinolin-7-ylmethoxy)pyridin-2-yl)piperidin-1-yl)methyl)-1H-benzo[d]imidazole-6-carboxylic acid], with 124 nM. For `COCCn1c(CN2CCC(c3cccc(OCc4ccc5ncsc5c4)n3)CC2)nc2ccc(C(=O)O)cc21` [Example 28, 2-((4-(6-(benzo[d]thiazol-6-ylmethoxy)pyridin-2-yl)piperidin-1-yl)methyl)-1-(2-methoxyethyl)-1H-benzo[d]imidazole-6-carboxylic acid] the value was 60.8 nM.

These data come from patent US12180197B2, “GLP-1R modulating compounds” (Gilead Sciences, Inc., priority 2021, dated 2024).
